{"source": "ChEMBL document CHEMBL1201862", "about": "“PubChem BioAssay data set” (2004)", "key": {"[1]": {"molecular_target": "Photoreceptor-specific nuclear receptor (Homo sapiens, UniProt Q9Y5X4)", "sequence (Q9Y5X4 whole entry)": "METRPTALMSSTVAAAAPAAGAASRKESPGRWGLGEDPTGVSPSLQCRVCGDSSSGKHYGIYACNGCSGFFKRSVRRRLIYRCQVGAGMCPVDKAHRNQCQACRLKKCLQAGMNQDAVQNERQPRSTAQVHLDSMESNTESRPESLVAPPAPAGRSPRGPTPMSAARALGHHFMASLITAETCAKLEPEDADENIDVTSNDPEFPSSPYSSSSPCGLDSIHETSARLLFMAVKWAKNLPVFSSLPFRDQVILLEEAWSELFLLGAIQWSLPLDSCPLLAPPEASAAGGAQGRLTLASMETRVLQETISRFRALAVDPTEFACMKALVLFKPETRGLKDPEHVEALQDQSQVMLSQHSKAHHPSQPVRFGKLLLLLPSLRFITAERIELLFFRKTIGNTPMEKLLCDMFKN", "type": "functional, cell-based"}, "[2]": {"molecular_target": "T1, Low molecular weight phosphotyrosine protein phosphatase (Homo sapiens, UniProt P24666)", "T1 sequence (P24666 whole entry)": "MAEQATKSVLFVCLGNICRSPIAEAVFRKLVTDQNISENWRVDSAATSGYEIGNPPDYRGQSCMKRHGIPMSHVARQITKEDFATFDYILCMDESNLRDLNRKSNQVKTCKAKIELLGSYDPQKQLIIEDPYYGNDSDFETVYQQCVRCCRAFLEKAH", "type": "functional", "conditions": "read-out: IC50_Mean"}, "[3]": {"molecular_target": "T1, Low molecular weight phosphotyrosine protein phosphatase", "type": "functional", "conditions": "read-out: IC50_Mean", "remark": "listed apart in the source"}, "Cytochrome P450 3A4": {"molecular_target": "Cytochrome P450 3A4 (Homo sapiens, UniProt P08684)", "sequence (P08684 whole entry)": "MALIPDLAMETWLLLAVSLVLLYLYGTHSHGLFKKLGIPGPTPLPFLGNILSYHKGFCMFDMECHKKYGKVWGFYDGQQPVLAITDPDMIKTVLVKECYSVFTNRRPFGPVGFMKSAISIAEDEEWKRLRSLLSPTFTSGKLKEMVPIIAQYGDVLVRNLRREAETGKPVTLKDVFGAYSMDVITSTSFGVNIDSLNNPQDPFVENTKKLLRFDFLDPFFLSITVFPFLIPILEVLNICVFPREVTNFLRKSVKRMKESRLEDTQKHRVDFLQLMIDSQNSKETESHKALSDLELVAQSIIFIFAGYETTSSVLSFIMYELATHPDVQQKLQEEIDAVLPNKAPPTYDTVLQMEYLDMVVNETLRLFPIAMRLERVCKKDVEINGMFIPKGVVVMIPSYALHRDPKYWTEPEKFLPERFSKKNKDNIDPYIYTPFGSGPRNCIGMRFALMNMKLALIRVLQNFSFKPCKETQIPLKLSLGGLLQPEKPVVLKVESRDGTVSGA"}, "[4]": {"molecular_target": "T2, Probable nicotinate-nucleotide adenylyltransferase (Staphylococcus aureus (strain N315), UniProt P65502)", "T2 sequence (P65502 whole entry)": "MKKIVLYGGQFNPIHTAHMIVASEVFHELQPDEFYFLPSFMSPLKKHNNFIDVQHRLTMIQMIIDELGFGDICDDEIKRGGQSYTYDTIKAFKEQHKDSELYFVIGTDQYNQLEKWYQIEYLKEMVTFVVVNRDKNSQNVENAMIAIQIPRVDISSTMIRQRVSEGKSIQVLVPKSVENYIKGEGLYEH", "type": "functional, Staphylococcus aureus subsp. aureus N315", "conditions": "read-out: IC50_Mean"}, "[5]": {"molecular_target": "T2, Probable nicotinate-nucleotide adenylyltransferase", "type": "functional, Staphylococcus aureus subsp. aureus N315"}, "Cytochrome P450 2C19": {"molecular_target": "Cytochrome P450 2C19 (Homo sapiens, UniProt P33261)", "sequence (P33261 whole entry)": "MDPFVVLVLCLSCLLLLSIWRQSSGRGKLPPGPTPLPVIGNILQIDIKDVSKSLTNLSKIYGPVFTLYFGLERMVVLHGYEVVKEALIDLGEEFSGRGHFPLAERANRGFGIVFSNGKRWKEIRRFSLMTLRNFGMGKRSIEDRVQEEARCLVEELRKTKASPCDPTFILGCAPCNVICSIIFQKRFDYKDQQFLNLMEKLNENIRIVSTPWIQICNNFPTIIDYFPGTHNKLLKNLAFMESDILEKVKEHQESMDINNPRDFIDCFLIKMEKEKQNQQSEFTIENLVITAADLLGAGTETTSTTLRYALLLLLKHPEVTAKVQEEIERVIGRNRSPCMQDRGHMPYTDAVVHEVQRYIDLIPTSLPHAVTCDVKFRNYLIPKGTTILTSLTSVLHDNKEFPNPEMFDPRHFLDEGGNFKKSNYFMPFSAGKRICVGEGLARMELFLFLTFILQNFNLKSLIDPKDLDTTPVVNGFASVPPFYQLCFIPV", "test": "Cytochrome panel assay with activity outcomes. Panel member name: p450-cyp2c19 Compounds with AC50 equal or less than 10 uM are considered active", "type": "functional", "conditions": "read-out: AC50"}, "[6]": {"molecular_target": "T3, Carboxy-terminal domain RNA polymerase II polypeptide A small phosphatase 1 (Homo sapiens, UniProt Q9GZU7)", "T3 sequence (Q9GZU7 whole entry)": "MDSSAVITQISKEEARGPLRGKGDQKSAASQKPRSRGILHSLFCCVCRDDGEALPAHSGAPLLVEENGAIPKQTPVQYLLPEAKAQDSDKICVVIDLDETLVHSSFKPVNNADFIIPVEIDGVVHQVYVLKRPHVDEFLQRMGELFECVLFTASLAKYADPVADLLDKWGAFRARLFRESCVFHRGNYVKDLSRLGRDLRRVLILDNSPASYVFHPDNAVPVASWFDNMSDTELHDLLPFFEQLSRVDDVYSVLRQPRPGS", "test": "inhibitors of CTDSP1, concentration-response testing, biochemical assay, absorbance-based, actives from ultra-high-throughput screening (AID 540297)", "type": "functional"}, "[7]": {"molecular_target": "Arf-GAP with SH3 domain, ANK repeat and PH domain-containing protein 1 (Homo sapiens, UniProt Q9ULH1)", "sequence (Q9ULH1 whole entry, the tested form may be a part)": "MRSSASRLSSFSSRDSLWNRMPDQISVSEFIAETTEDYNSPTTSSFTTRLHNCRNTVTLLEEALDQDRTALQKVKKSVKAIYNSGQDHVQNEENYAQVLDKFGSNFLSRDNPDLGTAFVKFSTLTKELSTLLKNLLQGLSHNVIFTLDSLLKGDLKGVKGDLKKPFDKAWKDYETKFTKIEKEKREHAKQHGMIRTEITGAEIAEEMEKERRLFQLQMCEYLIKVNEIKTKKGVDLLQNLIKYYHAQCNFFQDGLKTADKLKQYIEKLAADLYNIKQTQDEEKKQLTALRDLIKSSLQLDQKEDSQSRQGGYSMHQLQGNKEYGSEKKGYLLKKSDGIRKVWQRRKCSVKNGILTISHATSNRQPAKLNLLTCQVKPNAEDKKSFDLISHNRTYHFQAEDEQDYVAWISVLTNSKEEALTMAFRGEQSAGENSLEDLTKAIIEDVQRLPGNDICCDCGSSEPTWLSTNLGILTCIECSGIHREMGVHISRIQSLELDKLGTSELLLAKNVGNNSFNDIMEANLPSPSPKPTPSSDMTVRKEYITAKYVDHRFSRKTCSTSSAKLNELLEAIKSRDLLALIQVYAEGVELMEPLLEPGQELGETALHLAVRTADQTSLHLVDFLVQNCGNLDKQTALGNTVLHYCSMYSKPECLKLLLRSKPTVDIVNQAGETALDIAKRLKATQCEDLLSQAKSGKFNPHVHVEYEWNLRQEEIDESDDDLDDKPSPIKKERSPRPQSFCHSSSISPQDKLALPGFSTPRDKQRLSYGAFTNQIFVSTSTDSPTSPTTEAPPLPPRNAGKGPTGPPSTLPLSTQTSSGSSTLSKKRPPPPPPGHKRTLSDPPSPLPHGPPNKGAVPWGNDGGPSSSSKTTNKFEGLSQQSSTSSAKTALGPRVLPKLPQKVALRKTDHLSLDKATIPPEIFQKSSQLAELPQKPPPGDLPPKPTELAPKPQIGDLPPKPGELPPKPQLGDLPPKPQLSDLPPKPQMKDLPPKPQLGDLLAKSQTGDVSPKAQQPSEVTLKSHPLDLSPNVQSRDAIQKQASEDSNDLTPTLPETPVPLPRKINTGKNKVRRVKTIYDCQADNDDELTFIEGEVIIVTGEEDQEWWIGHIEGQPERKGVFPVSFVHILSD", "type": "functional"}, "[8]": {"test": "cytotoxicity in HEK293 cells, dose response, cytotoxicity control, cell-based, plate reader, cherry-pick (AID 651899)", "type": "functional"}, "[9]": {"molecular_target": "T4, Adenosylmethionine-8-amino-7-oxononanoate aminotransferase (Mycobacterium tuberculosis, UniProt P9WQ81)", "T4 sequence (P9WQ81 whole entry)": "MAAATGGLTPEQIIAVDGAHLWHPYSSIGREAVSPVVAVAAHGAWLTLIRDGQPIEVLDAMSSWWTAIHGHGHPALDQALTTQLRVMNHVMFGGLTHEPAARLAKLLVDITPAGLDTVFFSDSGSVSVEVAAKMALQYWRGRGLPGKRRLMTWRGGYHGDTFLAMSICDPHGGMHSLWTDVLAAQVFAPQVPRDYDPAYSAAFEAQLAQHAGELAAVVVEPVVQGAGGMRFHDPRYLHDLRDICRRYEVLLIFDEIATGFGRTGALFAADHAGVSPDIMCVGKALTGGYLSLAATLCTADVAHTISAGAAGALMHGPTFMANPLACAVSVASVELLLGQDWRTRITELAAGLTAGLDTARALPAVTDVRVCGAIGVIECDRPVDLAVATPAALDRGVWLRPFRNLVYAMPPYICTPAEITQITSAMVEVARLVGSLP", "test": "Mycobacterium tuberculosis BioA enzyme inhibitor Measured in Biochemical System Using Plate Reader - 2163-02_Inhibitor_Dose_CherryPick_Activity.", "type": "functional, Mycobacterium tuberculosis UT205"}, "[10]": {"test": "CRF-BP/CRF-R2 complex antagonists, dose response, cell-based, uHTS hits, 384-well (AID 651639)", "type": "functional, Homo sapiens", "conditions": "read-out: IC50_Mean"}, "[11]": {"molecular_target": "T5, Corticotropin-releasing factor receptor 2/Corticotropin-releasing factor-binding protein (Homo sapiens, UniProt P24387+Q13324)", "T5 sequence (Q13324 whole entry)": "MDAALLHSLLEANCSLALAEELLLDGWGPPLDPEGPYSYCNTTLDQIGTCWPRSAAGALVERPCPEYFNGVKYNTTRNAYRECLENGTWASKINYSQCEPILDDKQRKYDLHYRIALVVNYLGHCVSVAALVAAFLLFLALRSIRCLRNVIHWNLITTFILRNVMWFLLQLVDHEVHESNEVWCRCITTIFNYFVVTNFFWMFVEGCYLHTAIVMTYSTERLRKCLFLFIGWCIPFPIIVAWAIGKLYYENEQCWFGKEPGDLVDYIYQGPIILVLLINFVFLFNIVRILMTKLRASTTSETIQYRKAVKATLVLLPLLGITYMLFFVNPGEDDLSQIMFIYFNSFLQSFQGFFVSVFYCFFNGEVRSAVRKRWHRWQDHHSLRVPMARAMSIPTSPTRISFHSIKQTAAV", "T5 sequence (P24387 whole entry)": "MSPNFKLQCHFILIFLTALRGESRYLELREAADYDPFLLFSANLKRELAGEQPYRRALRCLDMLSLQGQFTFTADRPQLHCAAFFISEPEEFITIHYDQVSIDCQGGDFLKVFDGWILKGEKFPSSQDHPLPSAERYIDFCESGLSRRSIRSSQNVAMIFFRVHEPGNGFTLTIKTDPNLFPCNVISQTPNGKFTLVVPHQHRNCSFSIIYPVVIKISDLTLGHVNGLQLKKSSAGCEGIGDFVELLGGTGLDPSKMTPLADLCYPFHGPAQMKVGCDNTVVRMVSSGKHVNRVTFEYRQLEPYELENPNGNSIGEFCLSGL", "test": "activators of CRF receptor 2 with binding protein – uHTS hits, confirmation (AID 602473)", "type": "functional", "conditions": "read-out: EC50_Mean"}, "[12]": {"molecular_target": "T5, Corticotropin-releasing factor receptor 2/Corticotropin-releasing factor-binding protein", "test": "Dose Response confirmation of uHTS hits for small molecule antagonists of the CRF-binding protein and CRF-R2 receptor complex.", "type": "functional", "conditions": "read-out: IC50_Mean"}, "Estrogen receptor": {"molecular_target": "Estrogen receptor (Homo sapiens, UniProt P03372)"}, "[13]": {"molecular_target": "T6, Tyrosine-protein phosphatase non-receptor type 22 (Homo sapiens, UniProt Q9Y2R2)", "T6 sequence (Q9Y2R2 whole entry)": "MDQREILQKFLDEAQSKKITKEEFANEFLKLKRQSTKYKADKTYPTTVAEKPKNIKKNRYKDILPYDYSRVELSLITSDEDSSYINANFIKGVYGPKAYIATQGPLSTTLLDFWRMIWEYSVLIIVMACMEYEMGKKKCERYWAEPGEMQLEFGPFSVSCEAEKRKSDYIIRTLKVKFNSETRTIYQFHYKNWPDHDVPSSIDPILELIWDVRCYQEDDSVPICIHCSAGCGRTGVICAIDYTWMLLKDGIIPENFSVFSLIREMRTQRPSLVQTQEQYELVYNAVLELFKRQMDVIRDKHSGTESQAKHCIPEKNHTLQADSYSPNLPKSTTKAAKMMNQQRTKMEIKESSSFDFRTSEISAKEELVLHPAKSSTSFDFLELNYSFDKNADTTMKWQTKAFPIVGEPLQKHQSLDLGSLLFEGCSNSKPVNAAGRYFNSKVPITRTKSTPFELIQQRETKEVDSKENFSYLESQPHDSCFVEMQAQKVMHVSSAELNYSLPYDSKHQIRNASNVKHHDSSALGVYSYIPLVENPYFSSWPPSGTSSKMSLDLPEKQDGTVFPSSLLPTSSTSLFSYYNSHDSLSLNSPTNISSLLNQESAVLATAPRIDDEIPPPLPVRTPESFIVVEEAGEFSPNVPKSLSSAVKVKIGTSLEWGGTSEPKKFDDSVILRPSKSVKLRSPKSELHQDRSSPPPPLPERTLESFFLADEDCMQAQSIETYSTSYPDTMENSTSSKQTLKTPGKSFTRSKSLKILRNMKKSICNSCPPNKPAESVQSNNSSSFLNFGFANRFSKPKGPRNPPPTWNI", "test": "PTPN22 phosphatase inhibition, dose response, selectivity assay for STEP inhibitor project, biochemical (AID 624241)", "type": "functional"}, "Estrogen receptor beta [14]": {"molecular_target": "T7, Estrogen receptor beta (Homo sapiens, UniProt Q92731)", "T7 sequence (Q92731 whole entry)": "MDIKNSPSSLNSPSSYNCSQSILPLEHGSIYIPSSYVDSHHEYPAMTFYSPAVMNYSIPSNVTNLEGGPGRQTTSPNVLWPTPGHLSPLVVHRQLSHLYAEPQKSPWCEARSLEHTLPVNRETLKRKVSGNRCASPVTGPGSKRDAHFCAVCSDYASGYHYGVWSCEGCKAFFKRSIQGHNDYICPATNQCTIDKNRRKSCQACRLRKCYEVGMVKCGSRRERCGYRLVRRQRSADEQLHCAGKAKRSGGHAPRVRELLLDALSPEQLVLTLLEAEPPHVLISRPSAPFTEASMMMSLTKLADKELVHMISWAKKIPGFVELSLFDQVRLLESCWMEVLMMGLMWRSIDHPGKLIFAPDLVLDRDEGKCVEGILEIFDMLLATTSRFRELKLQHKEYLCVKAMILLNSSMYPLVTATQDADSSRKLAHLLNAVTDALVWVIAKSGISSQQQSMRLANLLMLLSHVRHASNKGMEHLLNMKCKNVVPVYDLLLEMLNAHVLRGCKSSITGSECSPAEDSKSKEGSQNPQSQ"}, "[15]": {"molecular_target": "Tyrosine-protein phosphatase non-receptor type 11 (Homo sapiens, UniProt Q06124)", "sequence (Q06124 whole entry)": "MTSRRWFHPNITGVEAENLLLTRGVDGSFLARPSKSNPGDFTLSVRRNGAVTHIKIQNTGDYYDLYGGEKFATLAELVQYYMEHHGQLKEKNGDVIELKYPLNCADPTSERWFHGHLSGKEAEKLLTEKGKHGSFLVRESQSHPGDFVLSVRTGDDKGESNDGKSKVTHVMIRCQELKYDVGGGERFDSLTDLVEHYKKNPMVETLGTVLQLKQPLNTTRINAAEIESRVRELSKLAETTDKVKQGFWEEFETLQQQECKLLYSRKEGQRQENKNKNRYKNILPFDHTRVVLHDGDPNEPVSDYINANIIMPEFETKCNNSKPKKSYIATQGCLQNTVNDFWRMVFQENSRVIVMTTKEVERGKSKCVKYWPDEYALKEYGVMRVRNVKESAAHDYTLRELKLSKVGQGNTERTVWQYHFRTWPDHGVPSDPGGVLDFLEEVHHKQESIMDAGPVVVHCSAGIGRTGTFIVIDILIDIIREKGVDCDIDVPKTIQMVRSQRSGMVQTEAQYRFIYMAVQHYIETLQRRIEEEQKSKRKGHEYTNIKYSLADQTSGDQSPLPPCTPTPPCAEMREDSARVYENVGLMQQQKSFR", "test": "SHP2 phosphatase inhibition, dose response, selectivity assay for STEP inhibitor project, biochemical (AID 602367)", "type": "functional", "conditions": "read-out: IC50_Mean"}, "Bcl-2-like protein 10": {"molecular_target": "T8, Bcl-2-like protein 10 (Homo sapiens, UniProt Q9HD36)", "T8 sequence (Q9HD36 whole entry)": "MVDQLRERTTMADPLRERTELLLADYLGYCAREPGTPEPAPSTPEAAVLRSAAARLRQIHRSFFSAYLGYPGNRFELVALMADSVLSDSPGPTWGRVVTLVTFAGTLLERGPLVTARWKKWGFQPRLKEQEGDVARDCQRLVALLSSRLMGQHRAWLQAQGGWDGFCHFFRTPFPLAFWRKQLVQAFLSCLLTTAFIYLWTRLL", "test": "displacers of TR3 peptide from Bcl-B, primary screen, selectivity assay for Bfl-1 inhibitor project, biochemical, fluorescence polarization, FITC-TR3 peptide (AID 748);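 note: fluorescence polarization from a fluorescein-labelled TR3 peptide binding purified Bcl-B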"}, "[16]": {"molecular_target": "Tyrosine-protein phosphatase non-receptor type 5 (Homo sapiens, UniProt P54829)", "sequence (P54829 whole entry)": "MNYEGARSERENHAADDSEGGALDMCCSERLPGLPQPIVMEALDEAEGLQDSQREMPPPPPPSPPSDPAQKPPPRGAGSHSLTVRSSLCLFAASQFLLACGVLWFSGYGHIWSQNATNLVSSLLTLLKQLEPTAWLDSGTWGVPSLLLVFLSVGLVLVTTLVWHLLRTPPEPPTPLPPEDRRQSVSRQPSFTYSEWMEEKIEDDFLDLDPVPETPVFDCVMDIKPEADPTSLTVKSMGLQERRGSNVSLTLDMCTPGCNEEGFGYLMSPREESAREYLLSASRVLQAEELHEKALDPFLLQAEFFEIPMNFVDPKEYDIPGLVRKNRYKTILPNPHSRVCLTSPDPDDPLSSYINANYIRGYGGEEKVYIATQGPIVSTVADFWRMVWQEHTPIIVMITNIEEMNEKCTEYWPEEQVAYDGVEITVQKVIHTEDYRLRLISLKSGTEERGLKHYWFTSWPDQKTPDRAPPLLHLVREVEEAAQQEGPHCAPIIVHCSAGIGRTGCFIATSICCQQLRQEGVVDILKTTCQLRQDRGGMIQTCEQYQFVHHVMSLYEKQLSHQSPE", "test": "STEP phosphatase inhibitors, confirmation, biochemical, fluorescence intensity, uHTS hits (AID 602372)", "type": "functional", "conditions": "read-out: IC50_Mean"}, "Estrogen receptor beta [17]": {"molecular_target": "T7, Estrogen receptor beta", "test": "ERβ–SRC-3 coactivator interaction inhibitors, confirmation, orthogonal assay, biochemical, ELISA, streptavidin-HRP readout (AID 1060)"}, "[18]": {"molecular_target": "Dual specificity protein phosphatase 3 (Homo sapiens, UniProt P51452)", "sequence (P51452 whole entry)": "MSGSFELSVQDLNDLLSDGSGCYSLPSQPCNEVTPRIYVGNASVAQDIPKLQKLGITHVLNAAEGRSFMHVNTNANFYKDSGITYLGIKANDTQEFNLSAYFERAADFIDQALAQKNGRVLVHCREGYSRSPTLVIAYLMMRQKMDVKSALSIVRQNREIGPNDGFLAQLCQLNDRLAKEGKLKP", "test": "VHR phosphatase inhibition, dose response, selectivity assay for STEP inhibitor project, biochemical (AID 602374)", "type": "functional", "conditions": "read-out: IC50_Mean"}}, "note": "Active and inactive are the calls of the source."}
{"smiles": "Cc1cnc(NC(=O)Cc2ccc(Br)cc2)s1", "values": [{"measurement": "IC50", "setting": "[1]", "result": "1.15 µM (active)"}]}
{"smiles": "Cc1ccc(C(=O)NNC(=O)c2cc3cc4ccccc4nc3s2)cc1", "values": [{"measurement": "IC50", "setting": "[2]", "result": "52.9 µM (inactive)"}, {"measurement": "IC50", "setting": "[3]", "result": "12.8 µM (active)"}, {"measurement": "AC50", "setting": "Cytochrome P450 3A4", "result": "4.47 µM (inconclusive)"}, {"measurement": "IC50", "setting": "[4]", "result": "27.3 µM (active)"}, {"measurement": "IC50", "setting": "[5]", "result": "12.1 µM (active)"}, {"measurement": "AC50", "setting": "Cytochrome P450 2C19", "result": "39.8 µM (inconclusive)"}, {"measurement": "IC50", "setting": "[6]", "result": "4.33 µM (active)"}]}
{"smiles": "CC1=CC2=NC(=O)/C(=C\\c3ccc(-c4ccc(Cl)cc4)o3)C(=N)N2O1", "values": [{"measurement": "IC50", "setting": "[7]", "result": "3.41 µM (active)"}]}
{"smiles": "COc1ccc(-c2[nH]nc3c2CN(C(=O)c2ccc(OC)c(OC)c2)CC3)cc1", "values": [{"measurement": "AC50", "setting": "[8]", "result": "25.6 µM (active)"}, {"measurement": "AC50", "setting": "[9]", "result": "0.912 µM (active)"}]}
{"smiles": "COc1ccccc1-c1c(C)nn2c(N3CCN(c4ccccc4OC)CC3)cc(C)nc12", "values": [{"measurement": "IC50", "setting": "[10]", "result": "> 20 µM (inactive)"}, {"measurement": "EC50", "setting": "[11]", "result": "> 53 µM (inactive)"}, {"measurement": "IC50", "setting": "[12]", "result": "12.9 µM (active)"}]}
{"smiles": "Cc1ccc(S(=O)(=O)Cc2ccc(C(=O)O)o2)cc1", "values": [{"measurement": "IC50", "setting": "Estrogen receptor", "result": "18.1 µM (active)"}, {"measurement": "IC50", "setting": "[13]", "result": "21.8 µM (inactive)"}, {"measurement": "IC50", "setting": "Estrogen receptor beta [14]", "result": "5.22 µM (active)"}, {"measurement": "IC50", "setting": "[15]", "result": "0.776 µM (active)"}, {"measurement": "IC50", "setting": "Bcl-2-like protein 10", "result": "16 µM (active)"}, {"measurement": "IC50", "setting": "[16]", "result": "23.4 µM (inactive)"}, {"measurement": "IC50", "setting": "Estrogen receptor beta [17]", "result": "< 0.023 µM (not active)"}, {"measurement": "IC50", "setting": "[18]", "result": "1.03 µM (active)"}, {"measurement": "IC50", "setting": "[6]", "result": "3.66 µM (active)"}]}
